Laboratory results taken from patent US10266566B2, “Protease-resistant peptide ligands” (North Carolina State University, priority 2013, dated 2019).
Entries after “also recorded” stand apart in the source; their conditions may differ. Where a SMILES comes first, the peptide text is derived from it. Where no end group is shown, it is not given here. [ ]: non-standard residue; d: D form. The star is where a group is joined. Toyopearl = Toyopearl AF-Amino-650M resin to which the C-terminus is tethered; Trp(1-Me) = Cn1cc(C[C@H](N)C(=O)O)c2ccccc21; Phe(4-Me) = Cc1ccc(C[C@H](N)C(=O)O)cc1; Lys(Me2) = CN(C)CCCC[C@H](N)C(=O)O; Cit = NC(=O)NCCC[C@H](N)C(=O)O; For = O=C*

What was measured:
α-chymotrypsin = target: T1, α-chymotrypsin (Bos taurus, UniProt P00766); test: Resistance of peptide ligands to proteolytic digestion: IgG yield after contact with α-chymotrypsin; format: in vitro ADME; conditions: for IgG Yield 2nd run (after α-chymotrypsin): after contact with α-chymotrypsin in Tris buffer pH 8.5 for 10 minutes; for resistance to α-chymotrypsin (in words): loss of IgG binding capacity after enzyme treatment, FIG. 2
T1 construct: purchased Sigma Aldrich
Method: (§1) All resins (35 mg each) were packed in a 30 mm×2.1 mm I.D. Microbore column (0.1 mL) (Alltech-Applied Science, Somerset, Pa., USA) and swollen with 20% v/v methanol. After equilibration with PBS, pH 7.4, three IgG binding tests were performed using a 10 mg/mL solution of hIgG in PBS. Between each binding test, the resin was contacted with a 0.15 mg/mL solution of either trypsin or α-chymotrypsin in Tris HCl buffer, pH 8.5. The chromatographic protocol employed for all five injections was as follows. One hundred microliters of feed sample was loaded onto the column at a flow rate of 0.05 mL/min (87 cm/h). After a washing step with 2 mL of equilibration buffer at a flow rate of 0.2 mL/min (348 cm/h), elution was performed with 4 mL of 0.2M acetate buffer pH 4.0 at a flow rate of 0.4 mL/min (696 cm/h). Finally, the adsorbent was regenerated with 4 mL of 0.85% phosphoric acid. The adsorbents HWRGWV-, HYFKFD-, and HFRRHL-Toyopearl (SEQ ID NOS: 6, 16, 17) resins were used as controls. The effluent was monitored by absorbance at 280 nm.
(§2) Based on the results reported in Table 2, the original sequences HWRGWV, HFRRHL, and HYFKFD (SEQ ID NOS: 1-3), and their variants HWMetCitGWMetV, HFMetCitCitHL, and HYMetFMetK(Met)2FMetD (SEQ ID NOS: 4, 5, 7) were tested for their resistance to enzymatic digestion. The sequences HWMetCitGWMetV (SEQ ID NO: 8), HFMetCitCitHL (SEQ ID NO: 5) were selected as the best variants of their respective original peptides, while HYMetFMetKMet2FMetD (SEQ ID NO: 7) was used as a negative control. […] Each adsorbent was subjected to five consecutive chromatographic runs. First, a solution of pure human polyclonal IgG at 10 mg/mL in PBS was injected to determine IgG yield for each adsorbent prior to contact with any enzyme. All four peptide variants gave a yield above 91% for this initial run. The resin was then contacted with a solution of α-chymotrypsin in Tris buffer pH 8.5 for 10 minutes. The amount of enzyme loaded onto the column was in a mass ratio of 1:100 peptide:enzyme, as done by Verdoliva et al.. After rinsing the resin, a second injection of IgG was then performed to estimate the loss of binding capacity due to the digestion of the peptide ligand by α-chymotrypsin. The resin was then contacted with the second enzyme solution, i.e., trypsin in Tris buffer pH 8.5, at the same peptide:enzyme ratio. A third IgG injection was finally performed to estimate the residual binding capacity of each resin after the second enzyme treatment.

trypsin = test: Resistance of peptide ligands to proteolytic digestion: IgG yield after contact with trypsin; format: in vitro ADME; conditions: for IgG Yield 3rd run (after trypsin): after α-chymotrypsin and then trypsin in Tris buffer pH 8.5; for resistance to trypsin (in words): loss of IgG binding capacity after enzyme treatment, FIG. 2
Method: as §1, §2

IgG = test: Purification of IgG (IVIG) from Cohn fraction II+III of human plasma, yield and purity; format: binding
Method: Cohn fraction II+III was dissolved in PBS, pH 7.4 to obtain an approximate IgG concentration of 5 mg/mL and filtered sequentially using a 0.44 μm and a 0.22 μm filter from Pall Corporation (Port Washington, N.Y., USA). […] After equilibration with PBS buffer containing 0.25M NaCl, 100 μL of feed sample was loaded onto the column at a flow rate of 0.05 mL/min (87 cm/h). After washing the column with 2 mL of equilibration buffer at a flow rate of 0.2 mL/min (348 cm/h), elution was performed with 4 mL of 0.2M acetate buffer pH 5.0 at a flow rate of 0.4 mL/min (696 cm/h). Cleaning and regeneration were performed using 4 mL of 0.85% phosphoric acid followed by a wash with 4 mL of 2M urea in acetate buffer (pH 4.0). Toyopearl AF-rProtein A-650F resin was used as a positive control. As per manufacturer's instructions, the chromatographic protocol comprised binding with PBS, pH 7.4 (at a flow rate of 0.05 mL/min) and elution with 0.1M Glycine buffer pH 2.5 (at a flow rate of 0.4 mL/min). The effluent was monitored by absorbance at 280 nm. Fractions were collected and used for analysis of IgG purity and yield as described below.
The effect of conductivity of the binding buffer was studied at 0, 0.135 and 0.25 M NaCl added to PBS. After equilibration with binding buffer, 100 μL of feed was loaded onto the column at a flow rate of 0.05 mL/min (87 cm/h). Chromatographic protocol and fraction collection were done as above described.
The amount of IgG in the collected fractions was quantified by HPLC using 1 mL HiTrap Protein G column. The yield of IgG was calculated as the ratio of IgG eluted to total IgG loaded. The purity of IgG in the eluted fractions was determined by sodium dodecyl sulfate polyacrylamide gel electrophoresis (SDS-PAGE) under reducing conditions using NuPAGE® Novex 4-12% Bis-Tris gels in a Xcell SuperLock™ Mini-Cell system (LifeSciences, Carlsbad, Calif., USA). Sample preparation was done by adding 5 μL of NuPAGE® LDS buffer and 2 μL of NuPAGE® reducing agent to 13 μL of sample and boiling the resulting mixture for 10 min. Gels were Coomassie-stained by using SimpleBlue™ SafeStain. The IgG purity was determined by densitometric analysis of Coomassie-stained gels by means of ImageJ 1.32j software (National Institutes of Health, Bethesda, Md., USA).
The purity of the product was calculated as the fraction of the total area equivalent to the IgG bands at 25 and 50 KDa.
The original peptide ligands were employed as positive controls. The crude stock of Cohn II+III paste was diluted in PBS to prepare the feed sample and solid particles were removed by filtration prior to injection into the column. The chromatographic protocol adopted in this work was derived from previous optimizations and comprised the use of 0.25M NaCl in PBS as binding buffer and 0.2M acetate buffer pH 5.0 for elution [24]. Fractions were collected and analyzed by Protein G chromatography and SDS-PAGE (FIG. 3) to determine IgG yield and purity respectively.
To verify this hypothesis, binding studies were repeated using the above listed sequences and three binding buffers, comprising 0M, 0.13M, and 0.25M NaCl in PBS.

human polyclonal IgG = test: Chromatographic IgG binding test of peptide-Toyopearl adsorbents with pure human polyclonal IgG; conditions: peptide on Toyopearl resin, approx. 0.12 meq/g, 0.1 mL column; ratio of IgG eluted to total IgG loaded
Method: All resins (35 mg each) were packed in a 30 mm×2.1 mm I.D. Microbore column (0.1 mL) (Alltech-Applied Science, Somerset, Pa., USA) and swollen with 20% v/v methanol. After equilibration with PBS, pH 7.4, three IgG binding tests were performed using a 10 mg/mL solution of hIgG in PBS. Between each binding test, the resin was contacted with a 0.15 mg/mL solution of either trypsin or α-chymotrypsin in Tris HCl buffer, pH 8.5. The chromatographic protocol employed for all five injections was as follows. One hundred microliters of feed sample was loaded onto the column at a flow rate of 0.05 mL/min (87 cm/h). […] The effluent was monitored by absorbance at 280 nm.
The amount of IgG in the collected fractions was quantified by HPLC using 1 mL HiTrap Protein G column. The yield of IgG was calculated as the ratio of IgG eluted to total IgG loaded. The purity of IgG in the eluted fractions was determined by sodium dodecyl sulfate polyacrylamide gel electrophoresis (SDS-PAGE) under reducing conditions using NuPAGE® Novex 4-12% Bis-Tris gels in a Xcell SuperLock™ Mini-Cell system (LifeSciences, Carlsbad, Calif., USA). […] The IgG purity was determined by densitometric analysis of Coomassie-stained gels by means of ImageJ 1.32j software (National Institutes of Health, Bethesda, Md., USA). […]

[1] = 0.25M NaCl in PBS binding buffer
[2] = 0.13M NaCl in PBS binding buffer

| Molecule | IgG Yield 2nd run (after α-chymotrypsin) (α-chymotrypsin) | IgG Yield 3rd run (after trypsin) (trypsin) | resistance to trypsin (in words) (trypsin) | resistance to α-chymotrypsin (in words) (α-chymotrypsin) | other results |
| --- | --- | --- | --- | --- | --- |
| Cc1ccc(C[C@H](NC(=O)[C@@H](N)Cc2c[nH]cn2)C(=O)N[C@@H](CCCNC(N)=O)C(=O)N[C@@H](CCCNC(N)=O)C(=O)N[C@@H](Cc2c[nH]cn2)C(=O)N[C@@H](CC(C)C)C(=O)O)cc1 [HFMetCitCitHL] (H-H[Phe(4-Me)][Cit][Cit]HL-OH; N-terminus and C-terminus assumed) | 92% | 91% |  |  |  |
| CC(C)[C@H](NC(=O)[C@H](Cc1c[nH]c2ccccc12)NC(=O)CNC(=O)[C@H](CCCNC(N)=O)NC(=O)[C@H](Cc1c[nH]c2ccccc12)NC(=O)[C@@H](N)Cc1c[nH]cn1)C(=O)O [HWCitGWV] (H-HW[Cit]GWV-OH; N-terminus and C-terminus assumed) | 73% | 71% | resistance towards one enzyme only |  |  |
| CC(C)[C@H](NC(=O)[C@H](Cc1cn(C=O)c2ccccc12)NC(=O)CNC(=O)[C@H](CCCNC(N)=O)NC(=O)[C@H](Cc1cn(C=O)c2ccccc12)NC(=O)[C@@H](N)Cc1c[nH]cn1)C(=O)O [HWForCitGWForV] (H-HW(For)[Cit]GW(For)V-OH; N-terminus and C-terminus assumed) | 69% | 69% |  |  |  |
| CC(C)[C@H](NC(=O)[C@H](Cc1cn(C)c2ccccc12)NC(=O)CNC(=O)[C@H](CCCNC(N)=O)NC(=O)[C@H](Cc1cn(C)c2ccccc12)NC(=O)[C@@H](N)Cc1c[nH]cn1)C(=O)O [HWMetCitGWMetV] (H-H[Trp(1-Me)][Cit]G[Trp(1-Me)]V-OH; N-terminus and C-terminus assumed) | 91% | 90% | completely unaffected by either | completely unaffected by either |  |
| CC(C)[C@H](NC(=O)[C@H](Cc1cn(C)c2ccccc12)NC(=O)CNC(=O)[C@H](CCCNC(=N)N)NC(=O)[C@H](Cc1cn(C)c2ccccc12)NC(=O)[C@@H](N)Cc1c[nH]cn1)C(=O)O [HWMetRGWMetV] (H-H[Trp(1-Me)]RG[Trp(1-Me)]V-OH; N-terminus and C-terminus assumed) | 91% | 82% |  | resistance towards one enzyme only |  |
| COc1ccc(C[C@H](NC(=O)[C@@H](N)Cc2c[nH]cn2)C(=O)N[C@@H](Cc2ccc(C)cc2)C(=O)N[C@@H](CCCCN(C)C)C(=O)N[C@@H](Cc2ccc(C)cc2)C(=O)N[C@@H](CC(=O)O)C(=O)O)cc1 [HYMetFMetKMet2FMetD] (H-HY(Me)[Phe(4-Me)][Lys(Me2)][Phe(4-Me)]D-OH; N-terminus and C-terminus assumed) | 49% | 53% | high resistance to proteolysis | high resistance to proteolysis |  |
| Ac-HWMetCitGWMetV: acetylated version of the variant HWMetCitGWMetV (Ac-H[Trp(1-Me)][Cit]G[Trp(1-Me)]V; not fully specified (C-terminus)) |  |  |  |  | IgG Purity (IgG; [1]): 92%; IgG yield over the binding buffers (IgG; over 0M, 0.13M, 0.25M NaCl binding buffers): above 90% |
| Ac-HWRGWV: acetylated version of the original HWRGWV (not fully specified (C-terminus); printed as Ac-HWRGWV; also: TOYOPEARL at residue 6) |  |  |  |  | IgG Purity (IgG; 0M NaCl in PBS binding buffer): 80%; IgG Yield (IgG; 0M NaCl in PBS binding buffer): 91%; IgG Purity (IgG; [2]): 80%; IgG Yield (IgG; [2]): 84%; IgG Purity (IgG; [1]): 84%; IgG Yield (IgG; [1]): 83% |
| HFRRHL [HFRRHL, reference compound] | 78% | 54% | good substrate for trypsin |  |  |
| HFcarbCitCitHL: variant of HFRRHL designed using carbamoyl-phenylalanine and citrulline (HF[Cit][Cit]HL-Toyopearl; not fully specified (residue 2); printed as HFcarbCitCitHL) |  |  |  |  | IgG Yield (human polyclonal IgG): 53% |
| HWMetCitDWMetV: variant created by replacing glycine with aspartic acid |  |  |  |  | IgG Yield (human polyclonal IgG): 47% |
| HWRGWV [HWRGWV, reference compound] | 72% | 36% | degraded by both trypsin and α-chymotrypsin; also recorded: ideal substrate for trypsin | degraded by both trypsin and α-chymotrypsin |  |
| HYFKFD [HYFKFD, reference compound] | 76% | 71% | almost immune to the attack of trypsin |  |  |
